Measurements reported in ChEMBL document CHEMBL5137021, “Organotropic dendrons with high potency as HIV-1, HIV-2 and EV-A71 cell entry inhibitors” (Eur J Med Chem, 2022).

How the values were obtained:
[1] = Cytotoxicity against human MT4 cells assessed as cell viability measured after 5 days by MTS assay; format: toxicity, cell-based; settings: time 5 day
[2] = system: Human immunodeficiency virus 1; test: Antiviral activity against HIV1 NL4-3 infected in human MT4 cells assessed as protection against virus induced cytopatheic effect measured after 5 days by MTS assay; format: functional, organism-based; settings: Human immunodeficiency virus 1, NL4-3, MT4, 120 h
[3] = system: Human immunodeficiency virus 2; test: Antiviral activity against HIV2 ROD infected in human MT4 cells assessed as protection against virus induced cytopatheic effect measured after 5 days by MTS assay; format: functional, organism-based; settings: Human immunodeficiency virus 2, ROD, MT4, 120 h
[4] = Cytotoxicity against human RD cells assessed as cell viability measured after 5 days by MTS assay; format: toxicity, cell-based; settings: time 5 day
Enterovirus A71 [5] = test: Antiviral activity against EV-A71 infected in RD cells assessed as protection against virus induced cytopatheic effect measured after 5 days by MTS assay; format: functional, organism-based; settings: Enterovirus A, 120 h
[6] = Selectivity index, ratio of CC50 for human MT4 cells to EC50 for antiviral activity against HIV-1 NL4.3; format: toxicity; settings: read-out: Ratio CC50/EC50
[7] = Selectivity index, ratio of CC50 for human RD cells to EC50 for antiviral activity against EV-A71; format: toxicity; settings: read-out: Ratio CC50/EC50
Enterovirus A71 [8] = test: Antiviral activity against Enterovirus A71 BrCr harboring VP1_S184T mutant infected in RD cells assessed as protection against virus induced cytopatheic effect measured after 5 days by MTS assay; format: functional, organism-based
Enterovirus A71 [9] = test: Antiviral activity against Enterovirus A71 BrCr harboring VP1_P246S mutant infected in RD cells assessed as protection against virus induced cytopatheic effect measured after 5 days by MTS assay; format: functional, organism-based
Enterovirus A71 [10] = test: Antiviral activity against Enterovirus A71 BrCr harboring VP1_S184T_P246S mutant infected in RD cells assessed as protection against virus induced cytopatheic effect measured after 5 days by MTS assay; format: functional, organism-based

Structure (SMILES)	CC50 at 120 h [1]	EC50 [2]	EC50 [3]	CC50 at 120 h [4]	EC50 (Enterovirus A71 [5])	selectivity ratio [6]	selectivity ratio [7]	EC50 (Enterovirus A71 [8])	EC50 (Enterovirus A71 [9])	EC50 (Enterovirus A71 [10])
NC(CCC(=O)NC(Cc1c(-c2cc(C(=O)O)cc(C(=O)O)c2)[nH]c2ccccc12)C(=O)O)(CCC(=O)NC(Cc1c(-c2cc(C(=O)O)cc(C(=O)O)c2)[nH]c2ccccc12)C(=O)O)CCC(=O)NC(Cc1c(-c2cc(C(=O)O)cc(C(=O)O)c2)[nH]c2ccccc12)C(=O)O (centres undefined)	> 50 µM	0.46 µM	0.1 µM	> 100 µM	0.75 µM	> 109	> 133			
O=C(CCC(CCC(=O)NC(Cc1c(-c2cc(C(=O)O)cc(C(=O)O)c2)[nH]c2ccccc12)C(=O)O)(CCC(=O)NC(Cc1c(-c2cc(C(=O)O)cc(C(=O)O)c2)[nH]c2ccccc12)C(=O)O)NC(=O)Nc1ccc2c(c1)Cc1ccccc1-2)NC(Cc1c(-c2cc(C(=O)O)cc(C(=O)O)c2)[nH]c2ccccc12)C(=O)O (centres undefined)	> 100 µM	0.06 µM	0.05 µM	> 100 µM	0.25 µM	> 1670	> 400			
O=C(CCC(CCC(=O)NC(Cc1c(-c2cc(C(=O)O)cc(C(=O)O)c2)[nH]c2ccccc12)C(=O)O)(CCC(=O)NC(Cc1c(-c2cc(C(=O)O)cc(C(=O)O)c2)[nH]c2ccccc12)C(=O)O)NC(=O)Nc1ccc2ccccc2c1)NC(Cc1c(-c2cc(C(=O)O)cc(C(=O)O)c2)[nH]c2ccccc12)C(=O)O (centres undefined)	> 100 µM	0.38 µM	0.22 µM	> 68 µM	0.97 µM	> 263	> 70			
O=C(CCC(CCC(=O)NC(Cc1c(-c2cc(C(=O)O)cc(C(=O)O)c2)[nH]c2ccccc12)C(=O)O)(CCC(=O)NC(Cc1c(-c2cc(C(=O)O)cc(C(=O)O)c2)[nH]c2ccccc12)C(=O)O)NC(=O)CCCCNC(=O)Nc1cc(C(=O)O)cc(C(=O)O)c1)NC(Cc1c(-c2cc(C(=O)O)cc(C(=O)O)c2)[nH]c2ccccc12)C(=O)O (centres undefined)	> 100 µM	0.2 µM	0.04 µM	> 300 µM	0.15 µM	> 500	> 2000			
O=C(CCC(CCC(=O)N[C@@H](Cc1c[nH]c2ccccc12)C(=O)O)(CCC(=O)N[C@@H](Cc1c[nH]c2ccccc12)C(=O)O)NC(=O)CCOCC(COCCC(=O)NC(CCC(=O)N[C@@H](Cc1c[nH]c2ccccc12)C(=O)O)(CCC(=O)N[C@@H](Cc1c[nH]c2ccccc12)C(=O)O)CCC(=O)N[C@@H](Cc1c[nH]c2ccccc12)C(=O)O)(COCCC(=O)NC(CCC(=O)N[C@@H](Cc1c[nH]c2ccccc12)C(=O)O)(CCC(=O)N[C@@H](Cc1c[nH]c2ccccc12)C(=O)O)CCC(=O)N[C@@H](Cc1c[nH]c2ccccc12)C(=O)O)COCCC(=O)NC(CCC(=O)N[C@@H](Cc1c[nH]c2ccccc12)C(=O)O)(CCC(=O)N[C@@H](Cc1c[nH]c2ccccc12)C(=O)O)CCC(=O)N[C@@H](Cc1c[nH]c2ccccc12)C(=O)O)N[C@@H](Cc1cc2ccccc2[nH]1)C(=O)O	> 100 µM	2.3 µM	6.6 µM	25 µM	0.3 µM	> 43	> 203	2 µM	4.7 µM	8.9 µM
O=C(CCC(CCC(=O)NC(Cc1c(-c2cc(C(=O)O)cc(C(=O)O)c2)[nH]c2ccccc12)C(=O)O)(CCC(=O)NC(Cc1c(-c2cc(C(=O)O)cc(C(=O)O)c2)[nH]c2ccccc12)C(=O)O)NC(=O)CCCCCCNC(=O)c1cc(O)c2c(c1)C(=O)c1cccc(O)c1C2=O)NC(Cc1c(-c2cc(C(=O)O)cc(C(=O)O)c2)[nH]c2ccccc12)C(=O)O (centres undefined)	> 100 µM	3.11 µM	0.71 µM	> 100 µM	1.43 µM	> 32	> 69			
O=C(CCC(CCC(=O)NC(Cc1c(-c2cc(C(=O)O)cc(C(=O)O)c2)[nH]c2ccccc12)C(=O)O)(CCC(=O)NC(Cc1c(-c2cc(C(=O)O)cc(C(=O)O)c2)[nH]c2ccccc12)C(=O)O)NC(=O)Nc1cccc(C(=O)O)c1)NC(Cc1c(-c2cc(C(=O)O)cc(C(=O)O)c2)[nH]c2ccccc12)C(=O)O (centres undefined)	> 100 µM	0.71 µM	0.11 µM	> 68 µM	0.48 µM	> 141	> 142			
O=C(CCC(CCC(=O)NC(Cc1c(-c2cc(C(=O)O)cc(C(=O)O)c2)[nH]c2ccccc12)C(=O)O)(CCC(=O)NC(Cc1c(-c2cc(C(=O)O)cc(C(=O)O)c2)[nH]c2ccccc12)C(=O)O)NC(=O)CCCCCCCCCCNC(=O)Nc1cc(C(=O)O)cc(C(=O)O)c1)NC(Cc1c(-c2cc(C(=O)O)cc(C(=O)O)c2)[nH]c2ccccc12)C(=O)O (centres undefined)	> 100 µM	3.99 µM	0.96 µM	> 100 µM	1.38 µM	> 25	> 72			
O=C(CCC(CCC(=O)NC(Cc1c(-c2cc(C(=O)O)cc(C(=O)O)c2)[nH]c2ccccc12)C(=O)O)(CCC(=O)NC(Cc1c(-c2cc(C(=O)O)cc(C(=O)O)c2)[nH]c2ccccc12)C(=O)O)NC(=O)COCCOCCNc1ccc([N+](=O)[O-])cc1[N+](=O)[O-])NC(=O)Cc1c(-c2cc(C(=O)O)cc(C(=O)O)c2)[nH]c2ccccc12 (centres undefined)	> 100 µM	8.39 µM	0.56 µM	> 100 µM	0.97 µM	> 12	> 103			
O=C(CCC(CCC(=O)NC(Cc1c(-c2cc(C(=O)O)cc(C(=O)O)c2)[nH]c2ccccc12)C(=O)O)(CCC(=O)NC(Cc1c(-c2cc(C(=O)O)cc(C(=O)O)c2)[nH]c2ccccc12)C(=O)O)NC(=O)CCCCNc1ccc([N+](=O)[O-])cc1[N+](=O)[O-])NC(Cc1c(-c2cc(C(=O)O)cc(C(=O)O)c2)[nH]c2ccccc12)C(=O)O (centres undefined)	> 100 µM	3.61 µM	0.13 µM	> 100 µM	1.07 µM	> 28	> 93			
O=C(CCC(CCC(=O)NC(Cc1c(-c2cc(C(=O)O)cc(C(=O)O)c2)[nH]c2ccccc12)C(=O)O)(CCC(=O)NC(Cc1c(-c2cc(C(=O)O)cc(C(=O)O)c2)[nH]c2ccccc12)C(=O)O)NC(=O)Nc1cc(C(=O)O)cc(C(=O)O)c1)NC(Cc1c(-c2cc(C(=O)O)cc(C(=O)O)c2)[nH]c2ccccc12)C(=O)O (centres undefined)	> 100 µM	0.29 µM	0.09 µM	> 60 µM	0.4 µM	> 345	> 150			
CCOC(=O)c1ccc(OCCC2CCN(c3ccc(C)nn3)CC2)cc1 [PIRODAVIR]				> 100 µM			> 333			
CN[C@@H]1[C@H](O[C@@H]2OC[C@@H](O)[C@H](O)[C@H]2O)[C@@H](O)[C@H](O[C@H]2c3cc(C)c(C(=O)N[C@H](C)C(=O)O)c(O)c3-c3c(cc4c(c3O)C(=O)c3cc(OC)cc(O)c3C4=O)[C@@H]2O)O[C@@H]1C [PRADIMICIN A]	> 100 µM					> 30				
